Patent US20250368625A1, “PIPERAZINES” (Grünenthal GmbH, priority 2024, published 2025)
Read-outs that look alike come from different tables or passages of the source.

Target: T1, human SSTR4 (Homo sapiens, UniProt P31391)
T1 construct: expressed in transfected cells; host or cells: CHO-K1
Assay: hSSTR4 cAMP assay (cAMP accumulation, LANCE Ultra cAMP kit, CHO-K1 human SSTR4 Gi cell line)
Format: cell-based
Protocol: cAMP accumulation assay using a CHO-K1 human SSTR4 Gi cell line.
Quantification of intracellular cAMP was performed using the LANCE Ultra cAMP assay kit from Revvity according to the manufacturer's instructions. CHO-K1 human SSTR4 Gi cell were either seeded in a density of 3K cells per well into a 384 well plate and incubated at 37° C. and 5% CO2 for 18-20 h or a stock of frozen cells were defrosted and seeded in a density of 5K cells per well without any further cultivation directly prior to the assay in a total volume of 5 μL in stimulation buffer. For pre-cultured cells, medium was replaced with 5 μL stimulation buffer before the assay. Cells were then stimulated with forskolin (final concentration 10 μM) and test compound (SSTR4 agonist) in increasing concentrations in duplicates for 30 min at 25° C. After stimulation, cells were lysed by addition of 10 μL of detection buffer (provided with the kit) and cell lysates were further diluted to ensure final cAMP concentrations fitted well into the dynamic range of the test kit. 10 μL of the diluted lysates were then added to respective wells of an OptiPlate-384 microplate. Thereafter, 5 μL of 4× Eu-cAMP tracer working solution was added, followed by addition of 5 μL of ULight-anti-cAMP working solution. The plate was then incubated for 1 h at 25° C. before reading on a TR-FRET microplate instrument. Data were normalized to cAMP high (forskolin only) and low control (forskolin+100 nM SST14) before fitting to a 4-Paramter logistic function.
All data was generated according to the cAMP assay conditions described above in at least duplicate and results are averaged and rounded to two significant figures.

[1] = functional agonism, forskolin 10 μM stimulated CHO-K1 human SSTR4 Gi cells, 30 min at 25° C., at least duplicate, averaged, read-out: hSSTR4 EC50

T1 sequence (P31391 whole entry): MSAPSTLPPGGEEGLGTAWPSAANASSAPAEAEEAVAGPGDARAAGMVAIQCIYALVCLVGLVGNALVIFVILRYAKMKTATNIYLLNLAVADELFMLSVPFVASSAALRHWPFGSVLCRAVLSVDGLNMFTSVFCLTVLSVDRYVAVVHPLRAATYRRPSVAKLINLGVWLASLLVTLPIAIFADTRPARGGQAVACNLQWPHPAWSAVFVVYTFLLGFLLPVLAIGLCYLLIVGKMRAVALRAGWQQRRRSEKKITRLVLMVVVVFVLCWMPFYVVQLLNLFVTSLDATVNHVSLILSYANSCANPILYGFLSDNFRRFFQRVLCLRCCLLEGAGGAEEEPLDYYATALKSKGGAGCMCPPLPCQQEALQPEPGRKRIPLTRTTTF

EC50 (morpholinyl matched molecular pairs (from WO 2016 075240), same cAMP assay conditions, read-out: hSSTR4 EC50 nM (Comparative Example)) [nM] | EC50 [1] [nM] | Structure (SMILES)
> 10000 |  | CC(C)(NC(=O)[C@@H]1CNCCO1)c1nnc2c(Cl)cccn12
 | 13 | Cc1cccn2c(C(C)(C)NC(=O)C3CNCCN3Cc3ncccn3)ncc12 (racemic) [SC-001, rac-N-(2-(8-methylimidazo[1,5-a]pyridin-3-yl)propan-2-yl)-1-(pyrimidin-2-ylmethyl)piperazine-2-carboxamide]
 | 1.1 | Cc1cccn2c(C(C)(C)NC(=O)[C@@H]3CNCCN3C(C)C)ncc12 (racemic) [SC-002, rac-1-isopropyl-N-(2-(8-methylimidazo[1,5-a]pyridin-3-yl)propan-2-yl)piperazine-2-carboxamide]
 | 3.3 | Cc1cccn2c(C(C)(C)NC(=O)C3CNCCN3Cc3ccccn3)ncc12 (racemic) [SC-003, rac-N-(2-(8-methylimidazo[1,5-a]pyridin-3-yl)propan-2-yl)-1-(pyridin-2-ylmethyl)piperazine-2-carboxamide]
 | 7.4 | Cc1cccn2c(C(C)(C)NC(=O)C3CNCCN3Cc3cccnn3)ncc12 (racemic) [SC-004, rac-N-(2-(8-methylimidazo[1,5-a]pyridin-3-yl)propan-2-yl)-1-(pyridazin-3-ylmethyl)piperazine-2-carboxamide]
 | 2.3 | Cc1cccn2c(C(C)(C)NC(=O)C3CNCCN3Cc3cncnc3)ncc12 (racemic) [SC-005, rac-N-(2-(8-methylimidazo[1,5-a]pyridin-3-yl)propan-2-yl)-1-(pyrimidin-5-ylmethyl)piperazine-2-carboxamide]
 | 3.7 | Cc1cccn2c(C(C)(C)NC(=O)C3CNCCN3Cc3ccn(C)n3)ncc12 (racemic) [SC-006, rac-1-((1-methyl-1H-pyrazol-3-yl)methyl)-N-(2-(8-methylimidazo[1,5-a]pyridin-3-yl)propan-2-yl)piperazine-2-carboxamide]
 | 2.2 | Cc1cccn2c(C(C)(C)NC(=O)[C@@H]3CNCCN3Cc3cnccn3)ncc12 (racemic) [SC-007, rac-N-(2-(8-methylimidazo[1,5-a]pyridin-3-yl)propan-2-yl)-1-(pyrazin-2-ylmethyl)piperazine-2-carboxamide]
 | 2.9 | Cc1cccn2c(C(C)(C)NC(=O)C3CNCCN3Cc3ccncn3)ncc12 (racemic) [SC-008, rac-N-(2-(8-methylimidazo[1,5-a]pyridin-3-yl)propan-2-yl)-1-(pyrimidin-4-ylmethyl)piperazine-2-carboxamide]
 | 3400 | CC(=O)N1CCNCC1C(=O)NC(C)(C)c1ncc2c(C)cccn12 (racemic) [SC-009, rac-1-acetyl-N-(2-(8-methylimidazo[1,5-a]pyridin-3-yl)propan-2-yl)piperazine-2-carboxamide]
 | 3500 | Cc1cccn2c(C(C)(C)NC(=O)C3CNCCN3C(=O)c3cnn(C)c3)ncc12 (racemic) [SC-010, rac-1-(1-methyl-1H-pyrazole-4-carbonyl)-N-(2-(8-methylimidazo[1,5-a]pyridin-3-yl)propan-2-yl)piperazine-2-carboxamide]
 | 1300 | Cc1cccn2c(C(C)(C)NC(=O)[C@@H]3CNCCN3C(=O)C3CC(F)(F)C3)ncc12 (racemic) [SC-011, rac-1-(3,3-difluorocyclobutane-1-carbonyl)-N-(2-(8-methylimidazo[1,5-a]pyridin-3-yl)propan-2-yl)piperazine-2-carboxamide]
 | 6600 | Cc1cccn2c(C(C)(C)NC(=O)C3CNCCN3C(=O)C3CC3)ncc12 (racemic) [SC-012, rac-1-(cyclopropanecarbonyl)-N-(2-(8-methylimidazo[1,5-a]pyridin-3-yl)propan-2-yl)piperazine-2-carboxamide]
 | 350 | Cc1cccn2c(C(C)(C)NC(=O)C3CNCCN3C(=O)C3COC3)ncc12 (racemic) [SC-013, rac-N-(2-(8-methylimidazo[1,5-a]pyridin-3-yl)propan-2-yl)-1-(oxetane-3-carbonyl)piperazine-2-carboxamide]
 | 3.1 | Cc1cccn2c(C(C)(C)NC(=O)C3CNCCN3CC3COC3)ncc12 (racemic) [SC-014, rac-N-(2-(8-methylimidazo[1,5-a]pyridin-3-yl)propan-2-yl)-1-(oxetan-3-ylmethyl)piperazine-2-carboxamide]
 | 0.86 | Cc1cccn2c(C(C)(C)NC(=O)C3CNCCN3c3ccccc3)ncc12 (racemic) [SC-093, rac-N-(2-(8-methylimidazo[1,5-a]pyridin-3-yl)propan-2-yl)-1-phenylpiperazine-2-carboxamide]

EC50 (morpholinyl matched molecular pairs (from WO 2016 075240), same cAMP assay conditions, read-out: hSSTR4 EC50 nM (Comparative Example)) [nM] | EC50 [1] [nM] | Structure (SMILES)
 | 9.5 | Cc1cccn2c(C(C)(C)NC(=O)[C@@H]3CNCCN3)ncc12 [SC-015, (S)-N-(2-(8-methylimidazo[1,5-a]pyridin-3-yl)propan-2-yl)piperazine-2-carboxamide]
 | 0.44 | Cc1cccn2c(C(C)(C)NC(=O)[C@@H]3CNCCN3C)ncc12 [SC-016, (S)-1-methyl-N-(2-(8-methylimidazo[1,5-a]pyridin-3-yl)propan-2-yl)piperazine-2-carboxamide]
 | 0.2 | Cc1cccn2c(C(C)(C)NC(=O)[C@@H]3CNCCN3CC(F)(F)F)ncc12 [SC-017, (S)-N-(2-(8-methylimidazo[1,5-a]pyridin-3-yl)propan-2-yl)-1-(2,2,2-trifluoroethyl)piperazine-2-carboxamide]
 | 1.2 | Cc1cccn2c(C(C)(C)NC(=O)[C@@H]3CNCCN3CC(C)(C)F)ncc12 [SC-018, (S)-1-(2-fluoro-2-methylpropyl)-N-(2-(8-methylimidazo[1,5-a]pyridin-3-yl)propan-2-yl)piperazine-2-carboxamide]
 | 0.58 | Cc1cccn2c(C(C)(C)NC(=O)[C@@H]3CNCCN3CC(C)(F)F)ncc12 [SC-019, (S)-1-(2,2-difluoropropyl)-N-(2-(8-methylimidazo[1,5-a]pyridin-3-yl)propan-2-yl)piperazine-2-carboxamide]
 | 0.27 | Cc1cccn2c(C(C)(C)NC(=O)[C@@H]3CNCCN3CC3(C(F)(F)F)CC3)ncc12 [SC-020, (S)-N-(2-(8-methylimidazo[1,5-a]pyridin-3-yl)propan-2-yl)-1-((1-(trifluoromethyl)cyclopropyl)methyl)piperazine-2-carboxamide]
 | 3.1 | Cc1cccn2c(C(C)(C)NC(=O)[C@@H]3CNCCN3C3CC(F)(F)C3)ncc12 [SC-021, (S)-1-(3,3-difluorocyclobutyl)-N-(2-(8-methylimidazo[1,5-a]pyridin-3-yl)propan-2-yl)piperazine-2-carboxamide]
 | 0.09 | Cc1cccn2c(C(C)(C)NC(=O)[C@@H]3CNCCN3Cc3ccnc(C4CC4)c3)ncc12 [SC-022, (S)-1-((2-cyclopropylpyridin-4-yl)methyl)-N-(2-(8-methylimidazo[1,5-a]pyridin-3-yl)propan-2-yl)piperazine-2-carboxamide]
 | 9 | Cc1cccn2c(C(C)(C)NC(=O)[C@@H]3CNCCN3CC(C)(C)O)ncc12 [SC-023, (S)-1-(2-hydroxy-2-methylpropyl)-N-(2-(8-methylimidazo[1,5-a]pyridin-3-yl)propan-2-yl)piperazine-2-carboxamide]
 | 0.46 | Cc1cccn2c(C(C)(C)NC(=O)[C@@H]3CNCCN3CC3(C)CCC(F)(F)CC3)ncc12 [SC-024, (S)-1-((4,4-difluoro-1-methylcyclohexyl)methyl)-N-(2-(8-methylimidazo[1,5-a]pyridin-3-yl)propan-2-yl)piperazine-2-carboxamide]
 | 0.05 | Cc1cccn2c(C(C)(C)NC(=O)[C@@H]3CNCCN3Cc3cccc(C(F)(F)F)c3)ncc12 [SC-025, (S)-N-(2-(8-methylimidazo[1,5-a]pyridin-3-yl)propan-2-yl)-1-(3-(trifluoromethyl)benzyl)piperazine-2-carboxamide]
 | 0.12 | Cc1cccn2c(C(C)(C)NC(=O)[C@@H]3CNCCN3Cc3ccccc3F)ncc12 [SC-026, (S)-1-(2-fluorobenzyl)-N-(2-(8-methylimidazo[1,5-a]pyridin-3-yl)propan-2-yl)piperazine-2-carboxamide]
 | 0.08 | Cc1cccn2c(C(C)(C)NC(=O)[C@@H]3CNCCN3Cc3ccc(F)cc3)ncc12 [SC-027, (S)-1-(4-fluorobenzyl)-N-(2-(8-methylimidazo[1,5-a]pyridin-3-yl)propan-2-yl)piperazine-2-carboxamide]
 | 0.17 | Cc1cccn2c(C(C)(C)NC(=O)[C@@H]3CNCCN3Cc3ccc(C(F)(F)F)cc3)ncc12 [SC-028, (S)-N-(2-(8-methylimidazo[1,5-a]pyridin-3-yl)propan-2-yl)-1-(4-(trifluoromethyl)benzyl)piperazine-2-carboxamide]
 | 0.11 | Cc1cccn2c(C(C)(C)NC(=O)[C@@H]3CNCCN3Cc3cccc(F)c3)ncc12 [SC-029, (S)-1-(3-fluorobenzyl)-N-(2-(8-methylimidazo[1,5-a]pyridin-3-yl)propan-2-yl)piperazine-2-carboxamide]
 | 0.48 | Cc1cccn2c(C(C)(C)NC(=O)[C@@H]3CNCCN3Cc3ccc(C(F)(F)F)nc3)ncc12 [SC-030, (S)-N-(2-(8-methylimidazo[1,5-a]pyridin-3-yl)propan-2-yl)-1-((6-(trifluoromethyl)pyridin-3-yl)methyl)piperazine-2-carboxamide]
